B1: TF: recombinant human tissue factor, lipidated and non-lipidated, initiates coagulation (protein, UniProt P13726 33-295, looked up)
Tissue factor: SGTTNTVAAYNLTWKSTNFKTILEWEPKPVNQVYTVQISTKSGDWKSKCFYTTDTECDLTDEIVKDVKQTYLARVFSYPAGNVESTGSAGEPLYENSPEFTPYLETNLGQPTIQSFEQVGTKVNVTVEDERTLVRRNNTFLSLRDVFGKDLIYTLYYWKSSSSGKKTAKTNTNEFLIDVDKGENYCFSVQAVIPSRTVNRKSTDSPVECMGQEKGEFREIFYIIGAVVFVVIILVIILAISLHKCRKAGVGQSWKENSPLNVS
modifications: lipidated and non-lipidated
notes: recombinant human tissue factor, lipidated and non-lipidated, initiates coagulation

Assays:
plasmin = test: Simultaneous thrombin and plasmin generation (STP) assay, plasmin generation; type: biochemical, human; settings: data not shown; for effect on plasmin generation at heparin 1 U/mL: heparin concentration 1 U/mL
thrombin = test: Simultaneous thrombin and plasmin generation (STP) assay, thrombin generation; type: biochemical, human; settings: data not shown; for effect on thrombin generation at heparin 1 U/mL: heparin concentration 1 U/mL
Method: Reactant solution is prepared as described previously for the CloFAL assay developed in our laboratory. Briefly, lipidated recombinant human tissue factor (TF) (American Diagnostica Inc, Stamford, Conn.), non-lipidated recombinant human TF (American Diagnostica Inc), and recombinant two-chain tissue plasminogen activator (tPA) (American Diagnostica Inc) are added to a stock solution of Tris-buffered saline (TBS; 66 mM Tris, 130 mM NaCl, pH=7.0) containing 34 mM CaCl2, to a concentration of 10 pM of TF (made from 8.7 pM non-lipidated TF and 1.3 pM lipidated TF) and 900 ng/mL of tPA. Final concentrations are 5 pM TF and 450 ng/mL tPA after addition of reactant solution to plasma samples, as described below. The assay blank consists of TBS alone. The reactant solution is freshly prepared from stored stock solutions of TBS, aliquoted TF, and aliquoted tPA just prior to assay. Final concentrations of TF and tPA ranging from 0-10 pM and 0-900 ng/mL, respectively, were investigated during assay development, with ultimate concentrations of these reagents (as well as ratio of lipidated to non-lipidated TF) selected based upon empiric experiments designed to optimize precision and analytical sensitivity to pathologically and physiologically altered states of coagulation and fibrinolysis, as previously performed with the CloFAL assay
Two fluorometric substrates were used for the detection of the key enzymes, thrombin and plasmin. […]
For each patient sample to be analyzed, 90 μL of reactant solution was added simultaneously to each well in a flat-bottom, black, 96 well Costar assay plate (Fisher Scientific, Santa Clara, Calif.) using a multi-tip automated pipette. […] The plate was then placed into the fluorescent spectrophotometer (Multi-Mode Microplate Reader Synergy 2, Bio-Tek Instruments, Winooski, Vt.) where it was pre-warmed at 37 ° C. for three minutes. […] The plate was then drawn back into the fluorescent spectrophotometer where the sample is initially mixed for five seconds followed by fluorescent intensity measurements taken from each well every 45 seconds for four hours at a fluorescent emission of […] (as determined by the chosen fluorescent substrates). […] The kinetic fluorometric intensity data were exported to Microsoft Excel for additional data analyses in order to generate the aforementioned calculated parameters from the raw data. […]

[1] = normal plasma, corn trypsin inhibitor added to citrate whole blood collection tubes, relative to its absence

Molecule	STP findings (plasmin generation) with contact pathway inhibition (plasmin; [1])	STP findings (thrombin generation) with contact pathway inhibition (thrombin; [1])	effect on plasmin generation at heparin 1 U/mL (plasmin)	effect on thrombin generation at heparin 1 U/mL (thrombin)	thrombin generation capacity, response to exogenous TF (thrombin; in vitro)
corn trypsin inhibitor	did not alter STP findings	did not alter STP findings	–	–	–
dalteparin	–	–	ablation	ablation	–
porcine unfractionated heparin sodium	–	–	ablation	ablation	–
B1	–	–	–	–	concentration-responsiveness

Source: US20130065260A1, “Compositions, Methods and Uses for Simultaneous Assay of Thrombin and Plasmin Generation” (The Regents of the University of Colorado, a body corporate, priority 2009, published 2013)
